From patent publication US6982285B2, “Control of parasites attached to skin of fish” (Novartis Animal Health US, Inc., priority 1999, dated 2006)

What was measured:
sea lice = settings: in salt water (printed for trichlorfon); cited from earlier work
salmon louse [1] = test: In vivo preliminary test for activity against the salmon louse following manual injection; set-up: species or system salmon louse on Atlantic salmon; settings: naturally infected Atlantic salmon; single dose 40 mg fluazuron/kg body weight injected by hand into muscle tissue below dorsal fin; inspected 24, 48 and 72 hours later; at latest after 72 hours
Procedure: 1. In Vivo Preliminary Test for Activity Against the Salmon Louse Following Manual […]
20 naturally infected Atlantic salmon of various sizes from a fish farm are transferred to a well-aerated seawater aquarium for acclimatisation. They are left there for 3 days and fed daily with the usual food. On the fourth day, they are caught individually with a fish basket and quickly weighed. Each fish is injected by hand using an injection needle with a single dose, according to formulation example 1, of 40 mg fluazuron/kg body weight into the muscle tissue below the dorsal fin. The treated fish are returned to their aquarium.

salmon louse [2] = test: Semi-automated in vivo test for activity against the salmon louse (needleless inoculation gun); set-up: species or system salmon louse on Atlantic salmon; settings: Atlantic salmon artificially infected with 5 pre-adult, 5 adult female and 5 adult male salmon lice; 45 mg fluazuron/kg body weight, needleless inoculation gun below dorsal fin; after 24 hours
Text: 2. Semi-Automated In Vivo Test for Activity Against the Salmon Louse.
Two well-aerated seawater aquariums, each of 5000 liter content, are set up parallel to one another at a distance of 2 m, with one being 10 cm higher than the other. The upper aquarium is provided with a kind of overflow which opens into a plexiglass channel which is open at the top and has a square inner cross-section of 10 cm. The upper end of this channel is secured by a movable grid and rests on the edge of the lower aquarium. Between the two aquariums, there is slight gradient. In the middle of the channel, two wire grids are attached with a 30 cm gap across the current, in such a way that they are either used as a water-permeable barrier or can be opened upwards on a hinge by a lever. At the bottom of the upper aquarium, there is an electrically controlled tail lift. When this is raised, the volume of water above it is diminished by reducing the depth of water. In addition, the upper aquarium contains a water feed which is secured by a grid and the lower aquarium has outlet holes. Water flows constantly from the upper to the lower aquarium. 200 Atlantic salmon of the same age are introduced into the upper aquarium and are each artificially infected with 5 pre-adult, 5 adult female and 5 adult male salmon lice. […]

Q: With `COP(=O)(OC)OC=C(Cl)Cl` [dichlorvos, 2,2-dichloroethenyl-dimethylphosphate] as the compound, how does the “concentration required / effective against sea lice” value (sea lice) read?
A: ≥ 1 ppm

Q: For `COP(=O)(OC)C(O)C(Cl)(Cl)Cl` (stereo not shown) [trichlorfon, dimethyl-2,2,2-trichloro-1-hydroxyethyl-phosphonate], which “concentration required / effective against sea lice” value (sea lice) is on record?
A: 300 ppm

Q: For `O=C(NC(=O)c1c(F)cccc1F)Nc1ccc(Cl)c(Oc2ncc(C(F)(F)F)cc2Cl)c1` [fluazuron, 1-[4-chloro-3-(3-chloro-5-trifluoromethyl-2-pyridyloxy)phenyl]-3-(2,6-difluorobenzoyl)urea], which “parasite infestation / number of surviving parasites” value (salmon louse [1]) is on record?
A: all the adult and pre-adult stages have been killed

Q: What about the “parasite infestation / number of surviving parasites” value (salmon louse [2]) of the same compound?
A: all the female and male adults and pre-adult stages have been killed
